Data on 16 molecules can be found in US11292801B2, “Calpain modulators and therapeutic uses thereof” (Blade Therapeutics, Inc., priority 2016, dated 2022).

One experiment deals with T1, Human Calpain 2/NS1 (Homo sapiens, UniProt P17655).
T1 sequence (P17655 1-700): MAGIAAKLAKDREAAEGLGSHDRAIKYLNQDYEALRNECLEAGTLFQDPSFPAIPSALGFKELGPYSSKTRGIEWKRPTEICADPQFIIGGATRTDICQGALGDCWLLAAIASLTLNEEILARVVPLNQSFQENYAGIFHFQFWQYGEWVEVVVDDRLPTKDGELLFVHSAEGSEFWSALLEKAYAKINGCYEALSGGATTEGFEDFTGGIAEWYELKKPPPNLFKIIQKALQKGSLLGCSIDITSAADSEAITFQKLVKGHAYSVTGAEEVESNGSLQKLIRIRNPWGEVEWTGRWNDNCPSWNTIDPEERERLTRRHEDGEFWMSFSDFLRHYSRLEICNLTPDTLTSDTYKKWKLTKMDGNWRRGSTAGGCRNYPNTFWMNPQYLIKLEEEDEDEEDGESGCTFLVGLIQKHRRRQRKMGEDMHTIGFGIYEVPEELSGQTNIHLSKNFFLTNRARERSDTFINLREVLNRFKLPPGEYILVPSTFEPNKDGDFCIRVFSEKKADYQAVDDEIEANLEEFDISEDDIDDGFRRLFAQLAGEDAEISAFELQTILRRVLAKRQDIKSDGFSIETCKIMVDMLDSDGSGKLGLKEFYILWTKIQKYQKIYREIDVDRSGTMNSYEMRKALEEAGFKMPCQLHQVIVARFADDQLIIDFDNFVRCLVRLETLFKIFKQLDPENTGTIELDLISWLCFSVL
T1 sequence (P04632 1-268 partner): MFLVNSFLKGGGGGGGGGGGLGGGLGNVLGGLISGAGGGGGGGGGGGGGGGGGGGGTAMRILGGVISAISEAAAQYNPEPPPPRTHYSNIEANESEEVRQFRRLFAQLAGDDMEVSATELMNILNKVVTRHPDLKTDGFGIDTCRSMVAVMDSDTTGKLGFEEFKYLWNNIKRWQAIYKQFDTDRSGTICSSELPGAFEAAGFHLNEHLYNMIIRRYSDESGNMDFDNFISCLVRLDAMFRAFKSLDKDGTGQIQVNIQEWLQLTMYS
The experiment in a line: Biochemical inhibition of calpain 2, continuous fluorescence (FRET substrate) assay. As to conditions: mean, read-out: Human Calpain 2/NS1 IC50 (nM)_MEAN. In short, it runs like this: (§1)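 Continuous FRET assay with 5-FAM/QXL520 peptide substrate in 50 mM Tris pH ~7.5, 100 mM NaCl, 1 mM DTT. Enzyme preincubated with inhibitor at 25C; reaction started with substrate plus CaCl2, read at 490/520 nm for 10 min. Rates from slopes over 1-5 min, IC50 from 4-parameter logistic fit.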

The next experiment addresses T2, Human Calpain 1/NS1 (Homo sapiens, UniProt P07384).
T2 sequence (P07384 1-714): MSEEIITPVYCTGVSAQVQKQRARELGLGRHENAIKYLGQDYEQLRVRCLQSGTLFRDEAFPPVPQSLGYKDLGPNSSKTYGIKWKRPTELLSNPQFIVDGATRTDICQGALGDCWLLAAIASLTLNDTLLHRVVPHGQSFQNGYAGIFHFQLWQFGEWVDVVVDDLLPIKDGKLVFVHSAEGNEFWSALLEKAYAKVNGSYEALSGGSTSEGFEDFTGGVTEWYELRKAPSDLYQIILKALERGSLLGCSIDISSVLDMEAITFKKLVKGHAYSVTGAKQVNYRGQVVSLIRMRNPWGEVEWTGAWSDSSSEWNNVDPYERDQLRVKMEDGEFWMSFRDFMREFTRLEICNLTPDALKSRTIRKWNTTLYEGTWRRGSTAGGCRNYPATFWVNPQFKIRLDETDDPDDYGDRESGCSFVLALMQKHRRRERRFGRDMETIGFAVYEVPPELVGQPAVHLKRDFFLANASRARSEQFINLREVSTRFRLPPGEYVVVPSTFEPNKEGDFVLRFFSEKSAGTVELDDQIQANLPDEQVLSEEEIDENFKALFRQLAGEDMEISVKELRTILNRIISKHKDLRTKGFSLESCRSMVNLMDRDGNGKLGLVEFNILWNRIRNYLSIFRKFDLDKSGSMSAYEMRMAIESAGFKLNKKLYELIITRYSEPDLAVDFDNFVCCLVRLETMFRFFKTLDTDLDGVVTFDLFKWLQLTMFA
T2 sequence (P04632 1-268 partner): T1 sequence (P04632 1-268 partner)
The experiment in a line: Biochemical inhibition of calpain 1, continuous fluorescence (FRET substrate) assay. Conditions: mean, read-out: Human Calpain 1/NS1 IC50 (nM)_MEAN. In short, it runs like this: as §1

For the next experiment, the target named is T3, Human Calpain 9/NS1 (Homo sapiens, UniProt O14815).
T3 sequence (O14815 1-690): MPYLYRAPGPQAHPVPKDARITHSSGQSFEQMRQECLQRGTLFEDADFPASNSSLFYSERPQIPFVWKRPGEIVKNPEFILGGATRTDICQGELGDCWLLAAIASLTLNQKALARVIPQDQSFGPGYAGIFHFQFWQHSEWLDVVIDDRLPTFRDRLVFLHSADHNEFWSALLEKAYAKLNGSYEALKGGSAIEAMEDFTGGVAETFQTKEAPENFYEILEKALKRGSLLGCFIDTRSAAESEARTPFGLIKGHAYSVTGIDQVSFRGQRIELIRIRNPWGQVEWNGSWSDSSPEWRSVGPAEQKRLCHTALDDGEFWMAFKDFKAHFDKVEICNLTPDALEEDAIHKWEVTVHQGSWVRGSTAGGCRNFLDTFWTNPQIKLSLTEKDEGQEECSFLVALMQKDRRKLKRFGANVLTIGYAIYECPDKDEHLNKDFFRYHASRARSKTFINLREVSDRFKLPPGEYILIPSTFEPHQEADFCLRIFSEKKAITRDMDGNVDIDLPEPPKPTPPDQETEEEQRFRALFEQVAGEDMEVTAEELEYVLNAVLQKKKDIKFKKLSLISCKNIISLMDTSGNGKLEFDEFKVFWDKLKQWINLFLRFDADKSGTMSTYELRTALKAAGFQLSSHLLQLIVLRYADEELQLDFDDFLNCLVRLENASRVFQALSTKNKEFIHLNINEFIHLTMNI
T3 sequence (P04632 1-268 partner): T1 sequence (P04632 1-268 partner)
The experiment can be described thus: Biochemical inhibition of calpain 9, continuous fluorescence (FRET substrate) assay. Conditions: mean, read-out: Human Calpain 9/NS1 IC50 (nM)_MEAN. In short, it runs like this: as §1

Each structure is given as a SMILES string. Where only a bound is given, the exact number is not on record here.

As for `O=C(NCc1ccccc1)C(=O)C1CCCCOCCOCc2ccccc2C(=O)N1` (stereo not drawn) [Compound 97, N-benzyl-2-oxo-2-(12-oxo-1,3,4,6,7,8,9,10,11,12-decahydrobenzo[f][1,4]dioxa[9]azacyclotetradecin-10-yl)acetamide], the IC50 was above 10000 nM on Human Calpain 2/NS1, above 10000 nM on Human Calpain 1/NS1 and below 3000 nM at Human Calpain 9/NS1.
Consider `CS(=O)(=O)c1cccc(CNC(=O)C(=O)C2CCCCOCCOCc3ccccc3C(=O)N2)c1` (stereo not drawn) [Compound 118, N-(3-(methylsulfonyl)benzyl)-2-oxo-2-(12-oxo-1,3,4,6,7,8,9,10,11,12-decahydrobenzo[f][1,4]dioxa[9]azacyclotetradecin-10-yl)acetamide], for which the IC50 at Human Calpain 2/NS1 was above 10000 nM; at Human Calpain 1/NS1, above 10000 nM; at Human Calpain 9/NS1, below 3000 nM.
Consider `O=C[C@@H]1CC=CCCCCCc2ncccc2C(=O)N1` [Compound 50, (S)-5-Oxo-6,7,8,11,12,13,14,15-octahydro-5h-pyrido[3,2-c][1]aza-cyclotridecine-7-carbaldehyde], for which the IC50 was 3000 to 10000 nM at Human Calpain 2/NS1, above 10000 nM at Human Calpain 1/NS1 and below 3000 nM at Human Calpain 9/NS1.
Taken in the same sequence, the figures for `CCNC(=O)C(=O)[C@@H]1C/C=C/CCCCCCCc2ccccc2C(=O)N1` [Compound 33, (S,E)-N-ethyl-2-oxo-2-(1-oxo-2,3,4,7,8,9,10,11,12,13-decahydro-1h-benzo[c][1]azacyclopentadecin-3-yl)acetamide] were above 10000 nM, above 10000 nM and above 10000 nM.
In the case of `COc1ccc(CNC(=O)C(=O)C2CCCCOCCOCc3ccccc3C(=O)N2)cc1` (stereo not drawn) [Compound 100, N-(4-methoxybenzyl)-2-oxo-2-(12-oxo-1,3,4,6,7,8,9,10,11,12-decahydrobenzo[f][1,4]dioxa[9]azacyclotetradecin-10-yl)acetamide], the IC50 at Human Calpain 2/NS1 is 3000 to 10000 nM; at Human Calpain 1/NS1 it was above 10000 nM; at Human Calpain 9/NS1 it was below 3000 nM.
As for `NC(=O)C(O)[C@@H]1CCCCCOc2ccnc(n2)-c2ccccc2C(=O)N1` (stereo partly drawn) [Compound 147], the IC50 on Human Calpain 2/NS1, on Human Calpain 1/NS1 and at Human Calpain 9/NS1 was above 10000 nM each time.
In the case of `NC(=O)C(=O)[C@@H]1C/C=C/CCOc2ccnc(n2)-c2ccccc2C(=O)N1` [Compound 137, (S,E)-2-oxo-2-(3-oxo-11-oxa-4-aza-1(2,4)-pyrimidina-2(1,2)-benzenacycloundecaphan-7-en-5-yl)acetamide], the IC50 on Human Calpain 2/NS1, on Human Calpain 1/NS1 and at Human Calpain 9/NS1 was below 3000 nM throughout.
On to `O=C(NCc1ccc2c(c1)OCO2)C(=O)C1CCCCOCCOCc2ccccc2C(=O)N1` (stereo not drawn) [Compound 81, N-(benzo[d][1,3]dioxol-5-ylmethyl)-2-oxo-2-(12-oxo-1,3,4,6,7,8,9,10,11,12-decahydrobenzo[f][1,4]dioxa[9]azacyclotetradecin-10-yl)acetamide], for which the values for the IC50 on Human Calpain 2/NS1, on Human Calpain 1/NS1 and on Human Calpain 9/NS1 were 3000 to 10000 nM, above 10000 nM and below 3000 nM, respectively.
As for `O=C(NCCN1CCOCC1)C(=O)C1CCCCOCCOCc2ccccc2C(=O)N1` (stereo not drawn) [Compound 80, N-(2-morpholinoethyl)-2-oxo-2-(12-oxo-1,3,4,6,7,8,9,10,11,12-decahydrobenzo[f][1,4]dioxa[9]azacyclotetradecin-10-yl)acetamide], the IC50 on Human Calpain 2/NS1, on Human Calpain 1/NS1 and at Human Calpain 9/NS1 was above 10000 nM each time.
As to `O=C(NCc1cccc(OC(F)(F)F)c1)C(=O)C1CCCCOCCOCc2ccccc2C(=O)N1` (stereo not drawn) [Compound 120, 2-Oxo-2-(12-oxo-1,3,4,6,7,8,9,10,11,12-decahydrobenzo[f][1,4]dioxa[9]aza-cyclotetradecin-10-yl)-N-(3-(trifluoromethoxy)benzyl)acetamide], the values for the IC50 at Human Calpain 2/NS1, on Human Calpain 1/NS1 and on Human Calpain 9/NS1 were above 10000 nM, above 10000 nM and below 3000 nM, respectively.
Consider `CC(C)NC(=O)C(=O)[C@@H]1C/C=C/COCCOCc2ccccc2C(=O)N1` [Compound 62, (S,E)-N-isopropyl-2-oxo-2-(12-oxo-1,3,4,6,9,10,11,12-octahydrobenzo[f][1,4]dioxa[9]azacyclotetradecin-10-yl)acetamide], for which the IC50 at Human Calpain 2/NS1, on Human Calpain 1/NS1 and on Human Calpain 9/NS1 was above 10000 nM throughout.
As for `O=C[C@@H]1CCCCCCCCCc2ccccc2C(=O)N1` [Compound 16, (S)-1-Oxo-1,2,3,4,5,6,7,8,9,10,11,12-dodecahydrobenzo[c][1]aza-cyclotetradecine-3-carbaldehyde], the figures for the IC50 at Human Calpain 2/NS1, at Human Calpain 1/NS1 and at Human Calpain 9/NS1 were below 3000 nM, 3000 to 10000 nM and below 3000 nM, respectively.
In the case of `O=C[C@@H]1C/C=C/CCCCCCc2ccccc2C(=O)N1` [Compound 10, (S,E)-1-Oxo-1,2,3,4,7,8,9,10,11,12-decahydrobenzo[c][1]aza-cyclotetradecine-3-carbaldehyde], the IC50 is below 3000 nM on Human Calpain 2/NS1, 3000 to 10000 nM on Human Calpain 1/NS1 and below 3000 nM on Human Calpain 9/NS1.
Consider `O=C[C@@H]1CCCCCCOc2ccnc(c2)-c2ccccc2C(=O)N1` [Compound 131, (S)-3-oxo-12-oxa-4-aza-1(2,4)-pyridina-2(1,2)-benzenacyclododecaphane-5-carbaldehyde], for which the IC50 on Human Calpain 2/NS1, on Human Calpain 1/NS1 and on Human Calpain 9/NS1 was below 3000 nM in each case.
Take `O=C[C@@H]1CCCCCOc2cccc(c2)-c2ncccc2C(=O)N1` [Compound 38, (S)-11-Oxo-3-oxa-10-aza-1(2,3)-pyridina-2(1,3)-benzenacycloundecaphane-9-carbaldehyde]: the IC50 on Human Calpain 2/NS1, on Human Calpain 1/NS1 and on Human Calpain 9/NS1 was below 3000 nM each time.
On to `C/C1=C\C[C@@H](C(=O)C(N)=O)NC(=O)c2cc(C)nn2-c2cccc(c2)OCC1` [Compound 145, (S,E)-2-(1^3,6-dimethyl-11-oxo-1H-3-oxa-10-aza-1(1,5)-pyrazola-2(1,3)-benzenacycloundecaphan-6-en-9-yl)-2-oxoacetamide], for which the IC50 at Human Calpain 2/NS1, at Human Calpain 1/NS1 and on Human Calpain 9/NS1 was below 3000 nM in each case.
